# Reference: ChEMBL document CHEMBL3046426, “Analytical and biological characterization of quinazoline semicarbazone derivatives” (Med Chem Res, 2010)
# Key:
# Bacillus cereus = test: Antibacterial activity against Bacillus cereus NCIM 2018 after 18 hr by disk diffusion method; format: functional; note: test concentration or dose not given here
# [1] = Solubility of the compound in water; format: physicochemical
# [2] = Solubility of the compound in acetic acid; format: physicochemical
# Klebsiella aerogenes = test: Antibacterial activity against Enterobacter aerogenesNCIM 2075 after 18 hr by disk diffusion method; format: functional, NCIM 2075; note: test concentration or dose not given here
# [3] = Solubility of the compound in DMSO; format: physicochemical
# [4] = Solubility of the compound in chloroform; format: physicochemical
# Candida albicans = test: Antifungal activity against Candida albicans NCIM 0707 after 18 hr by disk diffusion method; format: functional; note: test concentration or dose not given here
# Lederbergia lenta = test: Antibacterial activity against Bacillus lentus NCIM 2018 after 18 hr by disk diffusion method; format: functional; note: test concentration or dose not given here
# [5] = Solubility of the compound in ethanol; format: physicochemical
# [6] = Solubility of the compound in dilute acids; format: physicochemical
# Escherichia coli = test: Antibacterial activity against Escherichia coli NCIM 2065 after 18 hr by disk diffusion method; format: functional; note: test concentration or dose not given here
# [7] = Solubility of the compound in DMF; format: physicochemical
# Salmonella paratyphi = test: Antibacterial activity against Salmonella enterica subsp. enterica serovar Paratyphi A NCIM […] after 18 hr by disk diffusion method; format: functional
# Proteus vulgaris = test: Antibacterial activity against Proteus vulgaris NCIM 2239 after 18 hr by disk diffusion method; format: functional; note: test concentration or dose not given here
# Micrococcus luteus = test: Antibacterial activity against Micrococcus luteus NCIM 2155 after 18 hr by disk diffusion method; format: functional; note: test concentration or dose not given here
# [8] = Solubility of the compound in benzene; format: physicochemical
# [9] = Solubility of the compound in ethyl acetate; format: physicochemical
# Staphylococcus = test: Antibacterial activity against Staphylococcus albus NCIM 2178 after 18 hr by disk diffusion method; format: functional; note: test concentration or dose not given here
structure (smiles),measurement,setting,value
CC12CCC(C/C1=N/NC(=O)Nn1c(-c3ccccc3)nc3ccccc3c1=O)C2(C)C (centres undefined),diameter of the inhibition zone (DIZ),Bacillus cereus,14 mm
same,solubility,[1],Insoluble
same,solubility,[2],Insoluble
same,diameter of the inhibition zone (DIZ),Klebsiella aerogenes,16 mm
same,solubility,[3],soluble
same,solubility,[4],soluble
same,diameter of the inhibition zone (DIZ),Candida albicans,20 mm
same,diameter of the inhibition zone (DIZ),Lederbergia lenta,17 mm
same,solubility,[5],soluble
same,solubility,[6],Insoluble
same,diameter of the inhibition zone (DIZ),Escherichia coli,18 mm
same,solubility,[7],soluble
same,diameter of the inhibition zone (DIZ),Salmonella paratyphi,15 mm
same,diameter of the inhibition zone (DIZ),Proteus vulgaris,17 mm
same,diameter of the inhibition zone (DIZ),Micrococcus luteus,14 mm
same,solubility,[8],Insoluble
same,solubility,[9],soluble
same,diameter of the inhibition zone (DIZ),Staphylococcus,12 mm
CN(C)c1ccc(/C=N/NC(=O)Nn2c(-c3ccccc3)nc3ccccc3c2=O)cc1,diameter of the inhibition zone (DIZ),Bacillus cereus,17 mm
same,solubility,[1],Insoluble
same,solubility,[2],Insoluble
same,diameter of the inhibition zone (DIZ),Klebsiella aerogenes,17 mm
same,solubility,[3],soluble
same,solubility,[4],soluble
same,diameter of the inhibition zone (DIZ),Candida albicans,21 mm
same,diameter of the inhibition zone (DIZ),Lederbergia lenta,18 mm
same,solubility,[5],soluble
same,solubility,[6],Insoluble
same,diameter of the inhibition zone (DIZ),Escherichia coli,19 mm
same,solubility,[7],soluble
same,diameter of the inhibition zone (DIZ),Salmonella paratyphi,15 mm
same,diameter of the inhibition zone (DIZ),Proteus vulgaris,18 mm
same,diameter of the inhibition zone (DIZ),Micrococcus luteus,16 mm
same,solubility,[8],soluble
same,solubility,[9],soluble
same,diameter of the inhibition zone (DIZ),Staphylococcus,16 mm
O=C(NN=C(c1ccccc1)c1ccccc1)Nn1c(-c2ccccc2)nc2ccccc2c1=O,diameter of the inhibition zone (DIZ),Bacillus cereus,15 mm
same,solubility,[1],Insoluble
same,solubility,[2],Insoluble
same,diameter of the inhibition zone (DIZ),Klebsiella aerogenes,15 mm
same,solubility,[3],soluble
same,solubility,[4],soluble
same,diameter of the inhibition zone (DIZ),Candida albicans,25 mm
same,diameter of the inhibition zone (DIZ),Lederbergia lenta,17 mm
same,solubility,[5],soluble
same,solubility,[6],Insoluble
same,diameter of the inhibition zone (DIZ),Escherichia coli,21 mm
same,solubility,[7],soluble
same,diameter of the inhibition zone (DIZ),Salmonella paratyphi,16 mm
same,diameter of the inhibition zone (DIZ),Proteus vulgaris,16 mm
same,diameter of the inhibition zone (DIZ),Micrococcus luteus,12 mm
same,solubility,[8],soluble
same,solubility,[9],soluble
same,diameter of the inhibition zone (DIZ),Staphylococcus,10 mm
O=C(N/N=C1/C(=O)Nc2ccccc21)Nn1c(-c2ccccc2)nc2ccccc2c1=O,diameter of the inhibition zone (DIZ),Bacillus cereus,12 mm
same,solubility,[1],Insoluble
same,solubility,[2],soluble
same,diameter of the inhibition zone (DIZ),Klebsiella aerogenes,17 mm
same,solubility,[3],soluble
same,solubility,[4],soluble
same,diameter of the inhibition zone (DIZ),Candida albicans,22 mm
same,diameter of the inhibition zone (DIZ),Lederbergia lenta,17 mm
same,solubility,[5],soluble
same,solubility,[6],soluble
same,diameter of the inhibition zone (DIZ),Escherichia coli,21 mm
same,solubility,[7],soluble
same,diameter of the inhibition zone (DIZ),Salmonella paratyphi,16 mm
same,diameter of the inhibition zone (DIZ),Proteus vulgaris,17 mm
same,diameter of the inhibition zone (DIZ),Micrococcus luteus,16 mm
same,solubility,[8],soluble
same,solubility,[9],soluble
same,diameter of the inhibition zone (DIZ),Staphylococcus,13 mm
Clc1ccccc1C(c1ccccc1)(c1ccccc1)n1ccnc1 [CLOTRIMAZOLE],diameter of the inhibition zone (DIZ),Candida albicans,14 mm
COc1cc(/C=N/NC(=O)Nn2c(-c3ccccc3)nc3ccccc3c2=O)ccc1O,diameter of the inhibition zone (DIZ),Bacillus cereus,14 mm
same,solubility,[1],Insoluble
same,solubility,[2],soluble
same,diameter of the inhibition zone (DIZ),Klebsiella aerogenes,16 mm
same,solubility,[3],soluble
same,solubility,[4],soluble
same,diameter of the inhibition zone (DIZ),Candida albicans,21 mm
same,diameter of the inhibition zone (DIZ),Lederbergia lenta,18 mm
same,solubility,[5],soluble
same,solubility,[6],soluble
same,diameter of the inhibition zone (DIZ),Escherichia coli,19 mm
same,solubility,[7],soluble
same,diameter of the inhibition zone (DIZ),Salmonella paratyphi,15 mm
same,diameter of the inhibition zone (DIZ),Proteus vulgaris,16 mm
same,diameter of the inhibition zone (DIZ),Micrococcus luteus,15 mm
same,solubility,[8],soluble
same,solubility,[9],soluble
same,diameter of the inhibition zone (DIZ),Staphylococcus,13 mm
O=C(O)c1cn(C2CC2)c2cc(N3CCNCC3)c(F)cc2c1=O [CIPROFLOXACIN],diameter of the inhibition zone (DIZ),Bacillus cereus,9 mm
same,diameter of the inhibition zone (DIZ),Klebsiella aerogenes,10 mm
same,diameter of the inhibition zone (DIZ),Lederbergia lenta,9 mm
same,diameter of the inhibition zone (DIZ),Escherichia coli,16 mm
same,diameter of the inhibition zone (DIZ),Salmonella paratyphi,8 mm
same,diameter of the inhibition zone (DIZ),Proteus vulgaris,8 mm
same,diameter of the inhibition zone (DIZ),Micrococcus luteus,8 mm
same,diameter of the inhibition zone (DIZ),Staphylococcus,8 mm
